Experimental data reported in patent US9353092B2, “Synthesis and use of croconaine compounds” (University of Notre Dame du Lac, priority 2013, dated 2016).

Assays:
Format in all cases: physicochemical
[1] = Laser photothermal heating of a solution (temperature change by thermocouple); settings: for ΔT (temperature change during laser irradiation): 780 nm
From the text: This example describes a method of using compound 1 to increase the temperature of a solution. […] An Omega hypodermic thermocouple (HYPO-33-1-T-G-60-SMPW-M) was placed in the solution and the temperature measured using the associated USB converter. The Ti:Sapphire laser beam was aligned to pass through the solution (above the stirrer and avoiding close contact with the thermocouple) in an identical manner in every experiment. The laser wavelength was set at 780 and the power controlled to be 250 mW during all of the experiments, with a beam diameter of 0.3 cm.
[…] An Omega hypodermic thermocouple (HYPO-33-1-T-G-60-SMPW-M) was placed in the solution and the temperature measured using the associated USB converter. The Ti:Sapphire laser beam was aligned to pass through the solution (above the stirrer and avoiding close contact with the thermocouple) in an identical manner in every experiment. The laser wavelength was set at 780 or 808 nm and the power controlled to be 250 mW during all of the experiments, with a beam diameter of 0.3 cm.

[2] = Absorbance of solutions in 4:1 MeOH/H2O; settings: 780 nm
[3] = Photobleaching / photostability under near-infrared laser irradiation; settings: 4:1 MeOH/H2O; for Heating effect during extended near-infrared irradiation: 780 nm, 250 mW, 15 minute, 1.67 μg/mL croconaine 1, 2.00 μg/mL ICG, FIG. 13; for Change in absorbance after laser irradiation: FIGS. 14 and 15
Protocol: These experiments were conducted in 4:1 MeOH/H2O, with 1.67 μg/mL of croconaine 1 and 2.00 μg/mL of ICG respectively. This difference in compound photobleaching was confirmed with studies that looked at changes in the compound absorption signal.

[4] = 810 nm, 900 s, 260 mW, 0.005 mg/mL

Question: With `C#CCOCCN(CC)c1ccc(C2=C([O-])/C(=C3C=C/C(=[N+](/CC)CCOCC#C)S\3)C(=O)C2=O)s1` [Compound 1] as the compound, how does the “ΔT (temperature change during laser irradiation)” value ([1]; 0.10 μg/mL, 4:1 MeOH/H2O, 250 mW) read?
Answer: 0.1 °C

Question: What about the “ΔT (temperature change during laser irradiation)” value ([1]; 0.25 μg/mL, 4:1 MeOH/H2O, 250 mW) of the same compound?
Answer: 2.0 °C

Question: What about the “ΔT (temperature change during laser irradiation)” value ([1]; 0.50 μg/mL, 4:1 MeOH/H2O, 250 mW) of the same compound?
Answer: 3.4 °C

Question: What about the “ΔT (temperature change during laser irradiation)” value ([1]; 1.00 μg/mL, 4:1 MeOH/H2O, 250 mW) of the same compound?
Answer: 7.2 °C

Question: What about the “ΔT (temperature change during laser irradiation)” value ([1]; 1.67 μg/mL, 4:1 MeOH/H2O, 250 mW) of the same compound?
Answer: 9.8 °C

Question: And the “ΔT (temperature change during laser irradiation)” value ([1]; 2.50 μg/mL, 4:1 MeOH/H2O, 250 mW)?
Answer: 10.4 °C

Question: And the “ΔT (temperature change during laser irradiation)” value ([1]; 5.00 μg/mL, 4:1 MeOH/H2O, 250 mW)?
Answer: 11.0 °C

Question: And the “ΔT (temperature change during laser irradiation)” value ([1]; 50.0 μg/mL, 4:1 MeOH/H2O, 250 mW)?
Answer: 11.3 °C

Question: And the “Heating on laser irradiation at different wavelengths” value ([1]; 4:1 MeOH/H2O, 0.05 mg/mL for laser experiments, FIG. 12)?
Answer: proportional to the amount of light absorbed

Question: And the “Dependence of heating on absorbance” value ([1]; 780 nm laser light, Table 1, FIGS. 10 and 11)?
Answer: linear with absorbance from about A=0 until about A=1

Question: And the “A (absorbance value)” value ([2]; 0.10 μg/mL)?
Answer: 0.04

Question: What about the “A (absorbance value)” value ([2]; 0.25 μg/mL) of the same compound?
Answer: 0.11

Question: What about the “A (absorbance value)” value ([2]; 0.50 μg/mL) of the same compound?
Answer: 0.22

Question: And the “A (absorbance value)” value ([2]; 1.00 μg/mL)?
Answer: 0.46

Question: What about the “A (absorbance value)” value ([2]; 1.67 μg/mL) of the same compound?
Answer: 0.73

Question: And the “A (absorbance value)” value ([2]; 2.50 μg/mL)?
Answer: 1.13

Question: What about the “A (absorbance value)” value ([2]; 5.00 μg/mL) of the same compound?
Answer: 2.24

Question: And the “A (absorbance value)” value ([2]; 50.0 μg/mL, estimated)?
Answer: ~22.4 (est)

Question: And the “Concentration dependence of absorbance” value ([2]; FIGS. 8 and 9)?
Answer: obeys the Beer-Lambert Law

Question: What about the “Heating effect during extended near-infrared irradiation” value [3] of the same compound?
Answer: no heating effect loss

Question: What about the “Change in absorbance after laser irradiation” value [3, 4] of the same compound?
Answer: no change

Question: For `C#CCOCCN(Cc1ccccc1)c1ccc(C2=C([O-])/C(=C3C=C/C(=[N+](\CCOCC#C)Cc4ccccc4)S\3)C(=O)C2=O)s1` [Compound 2], which “Ability to increase the temperature of a solution” value ([1]; 2.0 or 50.0 μg/mL, 4:1 MeOH/H2O, 780 or 808 nm, 250 mW) is on record?
Answer: same ability as compound 1

Question: Which “Heating effect during extended near-infrared irradiation” value [3] does the source give for `CC1(C)C(/C=C/C=C/C=C/C=C2\N(CCCCS(=O)(=O)O)c3ccc4ccccc4c3C2(C)C)=[N+](CCCCS(=O)(=O)[O-])c2ccc3ccccc3c21` [ICG, indocyanine green] here?
Answer: loss of heating effect due to photobleaching

Question: And the “Decrease in the absorbance after laser irradiation” value ([3]; 810 nm, 900 s, 260 mW, 0.005 mg/mL, FIG. 15)?
Answer: ~50%

Question: What about the “Change in absorbance after laser irradiation” value [3, 4] of the same compound?
Answer: drop
